pIC50: −log10 of the molar value.
These molecules were tested against HPK1 (MAP4K1) (Homo sapiens, UniProt Q92918) (assay: HPK1 (MAP4K1) kinase Lantha screen assay). Settings: not given.
Assay type: biochemical
Summary of the method: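 Recombinant MAP4K1 preincubated 10 min with compound (6-point dilution, duplicates) in 50 mM HEPES pH 7.5, 10 mM MgCl2, then reacted with Fluorescein-PKC substrate and ATP for 90 min at room temperature. Antibody detection solution stopped reaction; after 60 min, TR-FRET read at ex 340 nm, em 520/495 nm.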

Sequence of HPK1 (MAP4K1) (Q92918 whole entry, species assumed): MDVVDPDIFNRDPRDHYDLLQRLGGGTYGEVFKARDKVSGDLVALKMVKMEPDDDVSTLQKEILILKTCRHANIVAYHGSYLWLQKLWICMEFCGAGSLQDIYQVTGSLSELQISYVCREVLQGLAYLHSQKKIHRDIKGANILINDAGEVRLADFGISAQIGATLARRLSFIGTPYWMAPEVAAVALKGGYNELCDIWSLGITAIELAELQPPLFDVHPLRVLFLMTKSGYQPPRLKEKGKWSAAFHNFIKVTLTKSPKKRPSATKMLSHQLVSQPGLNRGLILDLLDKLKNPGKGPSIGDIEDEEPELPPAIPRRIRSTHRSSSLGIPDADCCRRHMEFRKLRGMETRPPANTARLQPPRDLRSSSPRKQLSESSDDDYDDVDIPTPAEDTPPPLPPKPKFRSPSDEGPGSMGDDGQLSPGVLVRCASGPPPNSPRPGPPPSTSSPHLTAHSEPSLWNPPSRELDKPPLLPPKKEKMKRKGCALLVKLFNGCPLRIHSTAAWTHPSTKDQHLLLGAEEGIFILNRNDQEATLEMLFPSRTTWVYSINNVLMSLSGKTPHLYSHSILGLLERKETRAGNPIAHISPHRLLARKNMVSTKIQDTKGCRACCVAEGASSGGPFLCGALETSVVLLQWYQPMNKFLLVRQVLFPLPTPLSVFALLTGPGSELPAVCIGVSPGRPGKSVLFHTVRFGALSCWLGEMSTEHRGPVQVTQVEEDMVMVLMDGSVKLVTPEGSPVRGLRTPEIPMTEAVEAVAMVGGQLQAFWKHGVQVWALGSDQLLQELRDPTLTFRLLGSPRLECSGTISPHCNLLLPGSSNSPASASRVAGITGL

**Q.** With `Cc1ccc(NC(=O)c2cc(C(F)(F)F)ccn2)cc1C1=Cc2cnc(Nc3ccc(F)cc3)nc2N2CCN=C12` [Compound 227, N-(3-(2-((4-fluorophenyl)amino)-8,9-dihydroimidazo[1′,2′:1,6]pyrido[2,3-d]pyrimidin-6-yl)-4-methylphenyl)-4-(trifluoromethyl)picolinamide] as the molecule, how does the pIC50 read?
**A.** The pIC50 was > 7.00.

**Q.** How did the pIC50 turn out when `Cc1ccc(Nc2ncc3c(n2)N2CCN=C2C(c2cc(NC(=O)c4cc(C(F)(F)F)ccn4)ccc2C)=C3)cc1F` [Compound 228, N-(3-(2-((3-fluoro-4-methylphenyl)amino)-8,9-dihydroimidazo[1′,2′:1,6]pyrido[2,3-d]pyrimidin-6-yl)-4-methylphenyl)-4-(trifluoromethyl)picolinamide] was run?
**A.** Its pIC50 is > 7.00.

**Q.** `Cc1cnc(Nc2ncc3c(n2)N2CCN=C2C(c2cc(NC(=O)c4cc(C(F)(F)F)ccn4)ccc2C)=C3)s1` [Compound 232, N-(4-methyl-3-(2-((5-methylthiazol-2-yl)amino)-8,9-dihydroimidazo[1′,2′:1,6]pyrido[2,3-d]pyrimidin-6-yl)phenyl)-4-(trifluoromethyl)picolinamide] was tested. Which pIC50 did it give?
**A.** Its pIC50 is > 7.00.

**Q.** With `Cc1ccc(NC(=O)c2cc(C(F)(F)F)ccn2)cc1C1=Cc2cnc(Nc3ccnn3C)nc2N2CCN=C12` [Compound 235, N-(4-methyl-3-(2-((1-methyl-1H-pyrazol-5-yl)amino)-8,9-dihydroimidazo[1′,2′:1,6]pyrido[2,3-d]pyrimidin-6-yl)phenyl)-4-(trifluoromethyl)picolinamide] as the molecule, how does the pIC50 read?
**A.** The pIC50 was 5.00 to 7.00.

**Q.** With `Cc1ccc(NC(=O)c2cc(C(F)(F)F)ccn2)cc1C1=Cc2cnc(Nc3cn(C)nn3)nc2N2CCN=C12` [Compound 237, N-(4-methyl-3-(2-((1-methyl-1H-1,2,3-triazol-4-yl)amino)-8,9-dihydroimidazo[1′,2′:1,6]pyrido[2,3-d]pyrimidin-6-yl)phenyl)-4-(trifluoromethyl)picolinamide] as the molecule, how does the pIC50 read?
**A.** Its pIC50 is > 7.00.

**Q.** How did the pIC50 turn out when `Cc1ccc(NC(=O)c2cc(C(F)(F)F)ccn2)cc1C1=Cc2cnc(Nc3nnn[nH]3)nc2N2CCN=C12` [Compound 239, N-(3-(2-((1H-tetrazol-5-yl)amino)-8,9-dihydroimidazo[1′,2′:1,6]pyrido[2,3-d]pyrimidin-6-yl)-4-methylphenyl)-4-(trifluoromethyl)picolinamide] was run?
**A.** Its pIC50 is 5.00 to 7.00.

**Q.** How did the pIC50 turn out when `Cc1ccc(NC(=O)c2cc(C(F)(F)F)ccn2)cc1C1=Cc2cnc(Nc3ccn[nH]3)nc2N2CCN=C12` [Compound 240, N-(3-(2-((1H-pyrazol-5-yl)amino)-8,9-dihydroimidazo[1′,2′:1,6]pyrido[2,3-d]pyrimidin-6-yl)-4-methylphenyl)-4-(trifluoromethyl)picolinamide] was run?
**A.** Its pIC50 is > 7.00.

**Q.** With `Cc1ccc(Nc2ncc3c(n2)N2CCN=C2C(c2cc(NC(=O)c4cc(C(F)(F)F)ccn4)c(F)cc2C)=C3)cn1` [Compound 267, N-(2-fluoro-4-methyl-5-(2-((6-methylpyridin-3-yl)amino)-8,9-dihydroimidazo[1′,2′:1,6]pyrido[2,3-d]pyrimidin-6-yl)phenyl)-4-(trifluoromethyl)picolinamide] as the molecule, how does the pIC50 read?
**A.** Its pIC50 is > 7.00.

**Q.** `Cc1cc(F)c(NC(=O)c2cc(C(F)(F)F)ccn2)cc1C1=Cc2cnc(Nc3ccn(C)n3)nc2N2CCN=C12` [Compound 269, N-(2-fluoro-4-methyl-5-(2-((1-methyl-1H-pyrazol-3-yl)amino)-8,9-dihydroimidazo[1′,2′:1,6]pyrido[2,3-d]pyrimidin-6-yl)phenyl)-4-(trifluoromethyl)picolinamide] was tested. Which pIC50 did it give?
**A.** Its pIC50 is > 7.00.

**Q.** With `CNc1ncc2c(n1)N1CCN=C1C(c1cc(C(=O)Nc3cc(C(F)(F)F)ccn3)c(F)cc1C)=C2` [Compound 277, 2-fluoro-4-methyl-5-(2-(methylamino)-8,9-dihydroimidazo[1′,2′:1,6]pyrido[2,3-d]pyrimidin-6-yl)-N-(4-(trifluoromethyl)pyridin-2-yl)benzamide] as the molecule, how does the pIC50 read?
**A.** The pIC50 was 5.00 to 7.00.

**Q.** With `CNc1ncc2c(n1)N1CCN=C1C(c1ccc(F)c(C(=O)Nc3cc(C(F)(F)F)ccn3)c1)=C2` [Compound 278, 2-fluoro-5-(2-(methylamino)-8,9-dihydroimidazo[1′,2′:1,6]pyrido[2,3-d]pyrimidin-6-yl)-N-(4-(trifluoromethyl)pyridin-2-yl)benzamide] as the molecule, how does the pIC50 read?
**A.** Its pIC50 is < 5.00.

**Q.** With `CNc1ncc2c(n1)N1CCN=C1C(c1cc(NS(=O)(=O)c3cccc(C(F)(F)F)c3)ccc1C)=C2` [Compound 283, N-(4-methyl-3-(2-(methylamino)-8,9-dihydroimidazo[1′,2′:1,6]pyrido[2,3-d]pyrimidin-6-yl)phenyl)-3-(trifluoromethyl)benzenesulfonamide] as the molecule, how does the pIC50 read?
**A.** The pIC50 was < 5.00.

**Q.** How did the pIC50 turn out when `CNc1ncc2c(n1)N1CCN=C1C(c1cc(NC(=O)C3(C(=O)Nc4ccc(F)cc4)CC3)ccc1Cl)=C2` [Compound 342, N-(4-chloro-3-(2-(methylamino)-8,9-dihydroimidazo[1′,2′:1,6]pyrido[2,3-d]pyrimidin-6-yl)phenyl)-N-(4-fluorophenyl)cyclopropane-1,1-dicarboxamide] was run?
**A.** The pIC50 was 5.00 to 7.00.

**Q.** `CNc1ncc2c(n1)N1CCN=C1C(c1cc(NC(=O)C3(C(=O)Nc4ccc(F)cc4)CC3)c(F)cc1C)=C2` [Compound 343, N-(2-fluoro-4-methyl-5-(2-(methylamino)-8,9-dihydroimidazo[1′,2′:1,6]pyrido[2,3-d]pyrimidin-6-yl)phenyl)-N-(4-fluorophenyl)cyclopropane-1,1-dicarboxamide] was tested. Which pIC50 did it give?
**A.** Its pIC50 is < 5.00.

**Q.** `Cc1cc(F)c(NC(=O)C2(C(=O)Nc3ccc(F)cc3)CC2)cc1C1=Cc2cnc(NC3COC3)nc2N2CCN=C12` [Compound 344, N-(2-fluoro-4-methyl-5-(2-(oxetan-3-ylamino)-8,9-dihydroimidazo[1′,2′:1,6]pyrido[2,3-d]pyrimidin-6-yl)phenyl)-N-(4-fluorophenyl)cyclopropane-1,1-dicarboxamide] was tested. Which pIC50 did it give?
**A.** Its pIC50 is < 5.00.

The molecules below were run against T1, SRC (Homo sapiens, UniProt P12931) (assay: In vitro kinase assay, SRC (Caliper EZ Reader conversion)). Settings: read-out: SRC IC50.
T1 construct: purchased Carna Biosciences
T1 sequence (P12931 whole entry): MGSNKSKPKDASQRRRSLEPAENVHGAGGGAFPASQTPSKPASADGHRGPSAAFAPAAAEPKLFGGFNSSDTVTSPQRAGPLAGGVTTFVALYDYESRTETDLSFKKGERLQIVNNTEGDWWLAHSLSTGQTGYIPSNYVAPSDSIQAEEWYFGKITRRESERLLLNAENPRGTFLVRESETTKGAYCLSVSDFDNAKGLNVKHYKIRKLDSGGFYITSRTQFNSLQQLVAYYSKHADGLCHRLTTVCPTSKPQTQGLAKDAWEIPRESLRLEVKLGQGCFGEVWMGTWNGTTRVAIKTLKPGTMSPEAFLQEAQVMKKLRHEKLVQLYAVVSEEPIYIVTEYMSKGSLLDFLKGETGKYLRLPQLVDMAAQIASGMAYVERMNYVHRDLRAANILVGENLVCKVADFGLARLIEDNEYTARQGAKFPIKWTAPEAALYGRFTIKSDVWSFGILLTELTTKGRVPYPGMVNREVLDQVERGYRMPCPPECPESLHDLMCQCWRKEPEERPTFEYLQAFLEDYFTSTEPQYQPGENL
Assay type: biochemical
Method: The effect of the compounds on the activity of SRC and PAK1 kinase were assessed. SRC and PAK1 kinase enzymes were obtained from Carna Biosciences.
Test compounds were dissolved in 100% DMSO to prepare a 20 mM stock. Compounds were stored in −20° C. and protected from light. […] Saracatinib was used as a positive control for the SRC assay, and FRAX597 was used as a positive control for the PAK1 assay. For the positive controls, a 3-fold serial dilution was made to achieve a total of 10 concentrations. 10 μL 1× Kinase buffer was used as the negative control.
First, 250 nL of the compounds at each dilution were transferred into wells of a 384-well plate. […] Then, 10 μL of enzyme mix was added to the 384-well plate, and the enzymes and compounds were pre-incubated at room temperature for 10 minutes. […] Then, 15 μL of substrate mix was added to a 384-well plate and reacted at room temperature for 30 min and 60 min. The reaction was stopped by adding 30 μL of the stop buffer, and the conversion rate was read using a Caliper EZ Reader.
Percent inhibition is calculated according to the following equation: […]
wherein “Conversion %_sample” is the conversion percentage value of the sample; “Conversion %_min” is the average conversion percentage value of the negative control; and “Conversion %_max” is the average conversion percentage value of the positive control.
The dose-response curve was fitted using GraphPad Prism software (version 5, […]), and the IC50 values for each compounds were calculated by log(inhibitor) vs. response using a variable slope program with the following formula:
Y=Bottom+(Top-Bottom)/(1+10^((Log IC50−X)*HillSlope))

**Q.** `CN1CCN(c2ccc(Nc3ncc4c(n3)N3CCN=C3C(c3ccc(Cl)cc3Cl)=C4)c(F)c2)CC1` [Compound 8, 6-(2,4-dichlorophenyl)-N-(2-fluoro-4-(4-methylpiperazin-1-yl)phenyl)-8,9-dihydroimidazo[1′,2′:1,6]pyrido[2,3-d]pyrimidin-2-amine] was tested. Which pIC50 did it give?
**A.** Its pIC50 is > 7.00.

**Q.** `CCN1CCN(c2ccc(Nc3ncc4c(n3)N3CCN=C3C(c3ccc(Cl)cc3Cl)=C4)c(F)c2)CC1` [Compound 9, 6-(2,4-dichlorophenyl)-N-(4-(4-ethylpiperazin-1-yl)-2-fluorophenyl)-8,9-dihydroimidazo[1′,2′:1,6]pyrido[2,3-d]pyrimidin-2-amine] was tested. Which pIC50 did it give?
**A.** Its pIC50 is > 7.00.

**Q.** `Fc1cc(N2CCNCC2)ccc1Nc1ncc2c(n1)N1CCN=C1C=C2` [Compound 10, N-(2-fluoro-4-(piperazin-1-yl)phenyl)-8,9-dihydroimidazo[1′,2′:1,6]pyrido[2,3-d]pyrimidin-2-amine] was tested. Which pIC50 did it give?
**A.** Its pIC50 is < 5.00.

**Q.** With `COc1nc(N2CCNCC2)ccc1Nc1ncc2c(n1)N1CCN=C1C(c1ccncc1)=C2` [Compound 41, N-(2-methoxy-6-(piperazin-1-yl)pyridin-3-yl)-6-(pyridin-4-yl)-8,9-dihydroimidazo[1′,2′:1,6]pyrido[2,3-d]pyrimidin-2-amine] as the molecule, how does the pIC50 read?
**A.** The pIC50 was < 5.00.

**Q.** `Clc1cccc(Cl)c1C1=Cc2cnc(N3CCN(c4ccncc4)CC3)nc2N2CCN=C12` [Compound 51, 6-(2,6-dichlorophenyl)-2-(4-(pyridin-4-yl)piperazin-1-yl)-8,9-dihydroimidazo[1′,2′:1,6]pyrido[2,3-d]pyrimidine] was tested. Which pIC50 did it give?
**A.** The pIC50 was 5.00 to 7.00.

**Q.** With `C1=C(c2ccccc2)C2=NCCCN2c2nc(Nc3ccncc3)ncc21` [Compound 53, 6-phenyl-N-(pyridin-4-yl)-9,10-dihydro-8H-pyrido[1,6-a:2,3-d′]dipyrimidin-2-amine] as the molecule, how does the pIC50 read?
**A.** Its pIC50 is < 5.00.

**Q.** With `Clc1ccccc1C1=Cc2cnc(Nc3ccncc3)nc2N2CCCN=C12` [Compound 54, 6-(2-chlorophenyl)-N-(pyridin-4-yl)-9,10-dihydro-8H-pyrido[1,6-a:2,3-d′]dipyrimidin-2-amine] as the molecule, how does the pIC50 read?
**A.** Its pIC50 is < 5.00.

**Q.** With `Fc1cnccc1Nc1ncc2c(n1)N1CCCN=C1C(c1ccccc1)=C2` [Compound 55, N-(3-fluoropyridin-4-yl)-6-phenyl-9,10-dihydro-8H-pyrido[1,6-a:2,3-d′]dipyrimidin-2-amine] as the molecule, how does the pIC50 read?
**A.** The pIC50 was < 5.00.

**Q.** How did the pIC50 turn out when `Fc1ccccc1Nc1ncc2c(n1)N1CCCN=C1C(c1ccccc1)=C2` [Compound 56, N-(2-fluorophenyl)-6-phenyl-9,10-dihydro-8H-pyrido[1,6-a:2,3-d′]dipyrimidin-2-amine] was run?
**A.** The pIC50 was < 5.00.

**Q.** `COc1cccc(Nc2ncc3c(n2)N2CCCN=C2C(c2ccccc2Cl)=C3)c1` [Compound 60, 6-(2-chlorophenyl)-N-(3-methoxyphenyl)-9,10-dihydro-8H-pyrido[1,6-a:2,3-d′]dipyrimidin-2-amine] was tested. Which pIC50 did it give?
**A.** Its pIC50 is 5.00 to 7.00.

**Q.** How did the pIC50 turn out when `COc1ccccc1Nc1ncc2c(n1)N1CCCN=C1C(c1ccccc1Cl)=C2` [Compound 61, 6-(2-chlorophenyl)-N-(2-methoxyphenyl)-9,10-dihydro-8H-pyrido[1,6-a:2,3-d′]dipyrimidin-2-amine] was run?
**A.** The pIC50 was 5.00 to 7.00.

From patent US20230303570A1, “KINASE INHIBITORS AND USES THEREOF” (ABM Therapeutics Corporation, priority 2020, published 2023)
